Several values for one entry are separate records, joined by “and”; a condition that tells them apart may be missing. Identical values can stand only once.
What was measured:
[1] = tested on: TNFα; experiment: Poly(I:C)-stimulated human peripheral blood lymphocytes, TNFα release (ELISA)
[2] = tested on: TNFα; experiment: TNFα release from human monocyte-derived dendritic cells activated with LPS, CD40 ligand or CpG-DNA (ELISA); type: cell-based; conditions: 1 μM; for TNFα in culture supernatant: 18 hours
Experimental: Human donor monocyte-derived dendritic cells were cultured in RPMI-1640 containing 10% fetal bovine serum for six days in the presence of 10 ng/mL IL-4 and 200 ng/mL GM-CSF. The cells were activated with various activation stimuli: 10 ng/mL LPS (Sigma), 5 μg/mL Recombinant human CD-40 ligand (R&D Systems), or 5 μM Human CpG-DNA (HyCult Biotechnology) in the presence of prostaglandin E2 (PGE2) (1 μM), vehicle control (DMSO) or test substances (1 μM) for 18 hours. The levels of cell culture supernatant TNFα for individual donors was measured by commercial ELISA kits.

[3] = tested on: TNFα; experiment: Poly(I:C)-stimulated human monocyte-derived dendritic cells, TNFα release (ELISA); type: cell-based; conditions: Poly IC-stimulated monocyte-derived dendritic cells, one micromolar, 18 hours
[4] = tested on: IL-12; conditions: DC activated in the presence of PGE2; Hilkens et al. 1996; cited from earlier work
[5] = tested on: IL-12; experiment: LPS-stimulated human monocyte-derived dendritic cells, IL-12 release (ELISA); conditions: 1 μM; human monocyte-derived dendritic cells, LPS stimulation; individual donors 1-4
[6] = tested on: H5N1 influenza virus; conditions: mice infected with H5N1 influenza virus, treated; cited from earlier work
[7] = CD40 ligand 5 μg/mL, Donor 3, Vehicle 567.1
[8] = CD40 ligand 5 μg/mL, Donor 4, Vehicle 546.3
[9] = CD40 ligand 5 μg/mL, Donor 6, Vehicle 541.8
[10] = CpG 5 μM, Donor 1, Vehicle 2155.9
[11] = CpG 5 μM, Donor 3, Vehicle 1340.7
[12] = CpG 5 μM, Donor 6, Vehicle 467.8
[13] = LPS 10 ng/mL, Donor 4, Vehicle 3566.9
[14] = LPS 10 ng/mL, Donor 6, Vehicle 10750.1

SMILES: CC#CCC(C)[C@H](O)/C=C/[C@@H]1[C@H]2c3cccc(CCCC(=O)O)c3O[C@H]2C[C@H]1O (relative stereo) [Beraprost, (+/−)-(1R*,2R*,3 as*,8bS*)-2,3,3a,8b-tetrahydro-2-hydroxy-1-[(E)-(3S*)-3-hydroxy-4-methyl-1-octen-6-ynyl]-1H-cyclopenta[b]benzofuran-5-butyrate]
- TNFα percent inhibition from untreated control ([1]; Beraprost 0.04 nM, Poly IC-stimulated peripheral blood lymphocytes, individual donors 1-2): 4%
- TNFα percent inhibition from untreated control ([1]; Beraprost 0.11 nM, Poly IC-stimulated peripheral blood lymphocytes, individual donors 1-2): 26%
- TNFα percent inhibition from untreated control ([1]; Beraprost 1 nM, Poly IC-stimulated peripheral blood lymphocytes, individual donors 1-2): 11% and 28%
- TNFα percent inhibition from untreated control ([1]; Beraprost 3 nM, Poly IC-stimulated peripheral blood lymphocytes, individual donors 1-2): 36% and 11%
- TNFα percent inhibition from untreated control ([1]; Beraprost 9 nM, Poly IC-stimulated peripheral blood lymphocytes, individual donors 1-2): 35%
- TNFα percent inhibition from untreated control ([1]; Beraprost 250 nM, Poly IC-stimulated peripheral blood lymphocytes, individual donors 1-2): 59%
- inhibition at 0.00011 µM ([1]; Homo sapiens, Lymphocyte, read-out: TNFα percent inhibition from untreated control, Beraprost 0.11 nM, Poly IC-stimulated peripheral blood lymphocytes, individual donors 1-2): 19%
- inhibition at 0.009 µM ([1]; Homo sapiens, Lymphocyte, read-out: TNFα percent inhibition from untreated control, Beraprost 9 nM, Poly IC-stimulated peripheral blood lymphocytes, individual donors 1-2): 46%
- inhibition at 0.083 µM ([1]; Homo sapiens, Lymphocyte, read-out: TNFα percent inhibition from untreated control, Beraprost 83 nM, Poly IC-stimulated peripheral blood lymphocytes, individual donors 1-2): 56%
- inhibition at 0.25 µM ([1]; Homo sapiens, Lymphocyte, read-out: TNFα percent inhibition from untreated control, Beraprost 250 nM, Poly IC-stimulated peripheral blood lymphocytes, individual donors 1-2): 67%
- Poly(I:C)-induced TNFα ([1]; peripheral blood lymphocytes): significant descrease

SMILES: CCCCC[C@H](O)/C=C/[C@H]1[C@H](O)CC(=O)[C@@H]1C/C=C\CCCC(=O)O [PGE2, prostaglandin E2, reference compound]
- TNFα in culture supernatant [2, 7]: 147.9 pg/mL
- TNFα in culture supernatant [2, 8]: 87.0 pg/mL
- TNFα in culture supernatant [2, 9]: 54.2 pg/mL
- TNFα in culture supernatant [2, 10]: 104.5 pg/mL
- TNFα in culture supernatant [2, 11]: 70.0 pg/mL
- TNFα in culture supernatant [2, 12]: 106.2 pg/mL
- TNFα in culture supernatant [2, 13]: 0.0 pg/mL
- TNFα in culture supernatant [2, 14]: 174.8 pg/mL
- TNFα percent inhibition from untreated control ([3]; Donor 1): 96%
- TNFα percent inhibition from untreated control ([3]; Donor 2): 63%
- TNFα percent inhibition from untreated control ([3]; Donor 3): 81%
- TNFα percent inhibition from untreated control ([3]; Donor 4): 29%
- IL-12 production by dendritic cells [4]: impaired IL-12 production
- Percent inhibition of IL-12 compared to uninhibited control [5]: 80% and 33% and 83% and 72%

SMILES: CCOC(=O)C1=C[C@@H](OC(CC)CC)[C@H](NC(C)=O)[C@@H](N)C1 [Tamiflu, oseltamivir]
- survival of infected mice [6]: survived

SMILES: CCC1(CC/C=C/C2C(C/C=C\CCCC(=O)O)[C@H](Cl)C[C@H]2O)CCCC1 (stereo partly drawn) [Test Substance 1, (5Z,13E)-(9R,11R)-9-chloro-11-hydroxy-17,17-tetramethylene-20-nor-5,13-prostadienoic acid]
- cytokine levels measured in the culture supernatant ([2]; LPS, CD40 ligand or CpG activation): led to an inhibition in the cytokine levels
- TNFα in culture supernatant [2, 7]: 274.3 pg/mL
- TNFα in culture supernatant [2, 8]: 226.8 pg/mL
- TNFα in culture supernatant [2, 9]: 142.4 pg/mL
- TNFα in culture supernatant [2, 10]: 291.3 pg/mL
- TNFα in culture supernatant [2, 11]: 599.4 pg/mL
- TNFα in culture supernatant [2, 12]: 115.9 pg/mL
- TNFα in culture supernatant [2, 13]: 643.6 pg/mL
- TNFα in culture supernatant [2, 14]: 753.7 pg/mL

Reference: patent US8980944B2 (Gemmus Pharma Inc., priority 2006, dated 2015)
